Assay results published in article PMC6321646, “Evaluation of the Novel Synthetic Tyrosinase Inhibitor (Z)-3-(3-bromo-4-hydroxybenzylidene)thiochroman-4-one (MHY1498) In Vitro and In Silico” (Molecules, 2018).

Biological target: T1, mushroom tyrosinase (Agaricus bisporus, UniProt C7FF04)
T1 construct: gene PPO3
Test: dopachrome formation at […] nm, % inhibition at […]
Assay type: biochemical
Settings: read-out: 50μM / Mean ± SD (%)

T1 sequence (C7FF04 2-392): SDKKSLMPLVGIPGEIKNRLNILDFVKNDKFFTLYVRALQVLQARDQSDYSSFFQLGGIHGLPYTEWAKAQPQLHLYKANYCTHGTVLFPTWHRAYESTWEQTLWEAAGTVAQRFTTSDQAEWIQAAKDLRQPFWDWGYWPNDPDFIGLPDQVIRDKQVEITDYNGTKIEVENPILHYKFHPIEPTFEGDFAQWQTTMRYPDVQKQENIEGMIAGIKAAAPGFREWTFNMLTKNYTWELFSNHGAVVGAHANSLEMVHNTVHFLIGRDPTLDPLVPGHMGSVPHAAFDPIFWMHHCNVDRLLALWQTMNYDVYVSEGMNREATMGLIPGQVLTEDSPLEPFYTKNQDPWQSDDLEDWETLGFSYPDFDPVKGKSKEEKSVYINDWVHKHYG

An inhibition at 50 µM of 91.5 ± 6.2% was found for `COc1ccc(/C=C2\CSc3ccccc3C2=O)cc1O` [d] in this work.

An inhibition at 50 µM of 81.6 ± 1% was found for `O=C1/C(=C/c2ccc(O)cc2)CSc2ccccc21` [a] in this work.
